In the CheMixHub viscosity set:

Experiment: xn = mol fraction of the nth substance listed

CCCCCCCCCCCCCCCCCCCCCC + CCCCCCCCCC
viscosity [mPa·s], 101.3 kPa
Conditions | x2 = 0.4 | x2 = 0.5 | x2 = 0.6 | x2 = 0.799
303.2 K | – | – | – | 1.47
313.2 K | 2.93 | 2.53 | 2.05 | 1.24

Clc1ccccc1 + CCCCCCCCCC
viscosity [mPa·s], 101 kPa
Conditions | x1 = 0.1146 | x1 = 0.1985 | x1 = 0.31 | x1 = 0.3792 | x1 = 0.4894 | x1 = 0.6146 | x1 = 0.6949 | x1 = 0.8073 | x1 = 0.9173
308.15 K | 0.7161 | 0.703 | 0.6849 | 0.6723 | 0.6588 | 0.6526 | 0.6521 | 0.6598 | 0.6691
313.15 K | 0.6733 | 0.6572 | 0.6458 | 0.6387 | 0.6287 | 0.624 | 0.6222 | 0.6228 | 0.6302

CCCC(C)C + CCCCCCCCCCCC
298 K, 101.33 kPa
Conditions | viscosity [mPa·s]
x1 = 0.1004 | 1.205
x1 = 0.2007 | 1.075
x1 = 0.3018 | 0.939
x1 = 0.4027 | 0.8181
x1 = 0.5008 | 0.7124
x1 = 0.6002 | 0.6097
x1 = 0.6996 | 0.5148
x1 = 0.8002 | 0.4229
x1 = 0.9003 | 0.3443

CCCC(C)C + CCCCCCCCCCCCCC
298 K, 101.33 kPa
Conditions | viscosity [mPa·s]
x1 = 0.1041 | 1.795
x1 = 0.2003 | 1.595
x1 = 0.3021 | 1.362
x1 = 0.4053 | 1.136
x1 = 0.5024 | 0.9502
x1 = 0.6012 | 0.7806
x1 = 0.7022 | 0.6276
x1 = 0.8003 | 0.4899
x1 = 0.8985 | 0.3762

CCCC(C)C + CCCCCCCCCCCCCCCC
298 K, 101.33 kPa
Conditions | viscosity [mPa·s]
x1 = 0.1177 | 2.572
x1 = 0.2071 | 2.199
x1 = 0.3082 | 1.835
x1 = 0.4013 | 1.53
x1 = 0.4982 | 1.241
x1 = 0.6029 | 0.9821
x1 = 0.7034 | 0.7606
x1 = 0.8025 | 0.5679
x1 = 0.9006 | 0.3949

C=CC(=O)OCC + CCCCCCCCCCO
viscosity [mPa·s], 101.3 kPa
Conditions | x1 = 0.0861 | x1 = 0.235 | x1 = 0.302 | x1 = 0.4261 | x1 = 0.5383 | x1 = 0.7248 | x1 = 0.8036 | x1 = 0.8763 | x1 = 0.9389 | x1 = 0.9688
298.15 K | 8.526 | 5.017 | 3.969 | 2.618 | 1.895 | 1.076 | 0.86 | 0.702 | 0.602 | 0.563
308.15 K | 6.006 | 3.812 | 3.085 | 2.104 | 1.515 | 0.898 | 0.73 | – | 0.525 | 0.497

CCc1ccccc1 + CCCCCCCCCCO
viscosity [mPa·s], 101 kPa
Conditions | 298.15 K | 308.15 K
x1 = 0.0666 | 9.53 | 6.54
x1 = 0.1392 | 7.494 | 5.177
x1 = 0.1932 | 6.24 | 4.343
x1 = 0.2642 | 4.904 | 3.44
x1 = 0.3355 | 3.841 | 2.703
x1 = 0.3936 | 3.152 | 2.225
x1 = 0.4483 | 2.623 | 1.883
x1 = 0.5238 | 2.056 | 1.499
x1 = 0.598 | 1.632 | 1.206
x1 = 0.6621 | 1.35 | 1.023
x1 = 0.7309 | 1.118 | 0.863
x1 = 0.7953 | 0.951 | 0.744
x1 = 0.8668 | 0.802 | 0.659
x1 = 0.9396 | 0.693 | 0.597
